Test system: Myo7a+ hair cells and Sox2+ cells in sisomicin-damaged rat cochlear organoids
Experiment: Rat cochlear organoids after sisomicin damage
Type: cell-based
Procedure: On day 0, the cochlear sensory epithelium was dissected and the OC was separated from the modiolus and stria vascularis, as described above, from either Wistar rat pups (P2), Lgr5-GFP mice (P0–P2) or Atoh1-GFP mice (P0–P2). To separate the sensory epithelial layer from underlying mesenchyme and neurons, the OC was placed in a 100 μl drop of Matrisperse Cell Recovery Solution (Corning) for 1 h at RT, then delaminated with the aid of forceps. Gentle enzymatic dissociation of hair cells and supporting cells followed with 100 μl drop of TrypLE (Gibco), 20 min at 37°C, then mechanical trituration in DMEM/F12. The cell suspension was centrifuged for 5 min at 500 g at 4°C and resuspended in DMEM/F12 medium supplemented with B27 and N2 (Invitrogen), EGF (50 ng/ml), bFGF (50 ng/ml), IGF (25 ng/ml), CHIR99021 (GSK-3β inhibitor, 3 μM, Merck), valproic acid (HDAC inhibitor, 1 mM, Sigma), 2-phospho-L-ascorbic acid (280 μM, Stemcell Technologies) and 0.01% ampicillin (Sigma). Cells were plated at 2,000 cells per well on 96 wells plate (Corning Costar; ultra-low attachment, round-bottom) to allow aggregation at 37°C. On day 1, Matrigel (GF-depleted, Corning; 2% stock) was added to a final concentration of 0.18 mg/ml. […]
For staining and imaging, organoids were allowed to adhere ON onto transwell-permeable support membranes (Corning) in 12-well plates coated with 100% Matrigel. […] Compiled Z-projections were processed (FIJI, ver2.0) and hair cells quantified on individual planes with manual cell counter plugin, by evaluation of cytosolic expression and nuclear exclusion of Myo7a. […]
Finally, the regenerative potential of CPD3 was assessed with rat cochlear organoids testing the efficacy of CPD3 to transdifferentiate any remaining supporting cells after ototoxic damage. […] A decrease in Myo7a+ hair cells was detected 7 days following sisomicin damage (Figure 6D). […]

COc1ccc2c(c1)N1CCC(C)(C)C1=CC(=O)[C@H]2NC(=O)[C@H](C)NC(=O)CCC(F)(F)F [CPD3]
Total number of Sox2 positive cells in the organoid (after sisomicin damage): did not change | Number of Myo7a+/Sox2+ hair cells (after sisomicin damage, p < 0.001): did increase | Myo7a+ hair cells after sisomicin damage (sisomicin 500 μM 2 h at day 20, 7 days culture, vs sisomicin only, p < 0.001): significant increase
